{"source": "patent US11963995B2", "about": "“Methods comprising desmopressin” (Ferring B.V., priority 2008, dated 2024)", "key": {"[1]": {"tested_on": "adult patients with nocturia", "assay": "Duration of initial period of undisturbed sleep, change from baseline to Day 28 (Part I)", "format": "in vivo, human", "details": "for Change from baseline to final visit (Day 28) in duration of initial period of undisturbed sleep, mean / Change from baseline to final visit (Day 28) in duration of initial period of undisturbed sleep, median: ITT, Part I; for median increase in initial period of sleep: baseline to Day 28", "method": "As used herein, the term “first sleep period” refers to the time elapsed from bedtime to either first void or morning arising.\n(§1) All treatments were administered orally once per night approximately 1 hour prior to bedtime; subjects were instructed to limit their fluid intake prior to drug self-administration. […] Randomization was to be stratified by age (<65, ≥65 years) and by the absence/presence of nocturnal polyuria, defined as a ratio of nighttime urine volume/24-hour urine volume 33%. To achieve the desired number of subjects within each stratum, enrollment of subjects in a particular stratum (age and/or presence/absence of nocturnal polyuria) could be halted. If this was necessary, all investigative sites were to be informed in writing at least 1 week in advance to stop screening in a population of subjects.\nThe secondary efficacy endpoints were: (1) durability of effect achieved in Part I; (2) change in initial period of undisturbed sleep, defined as the elapsed time in minutes from going to bed with the intention of sleeping to the time of awakening for the first nocturnal void; and (3) change in duration of total sleep time. Additional secondary endpoints were collected, e.g., change in nocturia-specific quality of life as assessed by scores on the International Consultation on Incontinence Modular Questionnaire—Noctuira and the Noctuira Quality of Life Questionnaire, change in quality of sleep as assessed by the global score of the Pittsburgh Sleep Quality Index, and change in overall quality of life as assessed by the short form—12v2. A description of the additional secondary efficacy endpoints and their accompanying data are not provided herein.\n(§2) Missing values concerning number of nocturnal voids at Day 8, Day 15, Day 22, and Day 28 in Part I were imputed using last observation carried forward (LOCF). Missing values concerning sleep disturbance and urine volume (for average 24-hour urine volume and average nocturnal urine volume) were not imputed."}, "[2]": {"tested_on": "adult patients with nocturia", "assay": "Change in urine volume (nocturnal, total) from baseline to Day 28 (Part I)", "format": "in vivo, human", "details": "all females", "method": "As used herein, the term “nocturnal urine” refers to the total urine volume from 5 minutes after bedtime until rising in the morning, including the first void within 30 minutes of rising.\nas §1\nChanges in urine volume from baseline to the end of Day 28 were also assessed and included herein.\nas §2"}, "[3]": {"details": "10 ug, all males with monitoring"}, "[4]": {"details": "10 ug, females over 50 years of age"}, "[5]": {"details": "10 ug, females over 65 years of age"}, "[6]": {"details": "25 ug, all males with monitoring"}, "[7]": {"details": "25 ug, females over 50 years of age"}, "[8]": {"details": "25 ug, females over 65 years of age"}, "[9]": {"details": "50 ug, all males with monitoring"}, "[10]": {"details": "50 ug, females over 50 years of age"}, "[11]": {"details": "50 ug, females over 65 years of age"}, "[12]": {"details": "100 ug, all males with monitoring"}, "[13]": {"details": "100 ug, females over 50 years of age"}, "[14]": {"details": "100 ug, females over 65 years of age"}}}
{"smiles": "NC(=O)CC[C@@H]1NC(=O)[C@H](Cc2ccccc2)NC(=O)[C@H](Cc2ccc(O)cc2)NC(=O)CCSSC[C@@H](C(=O)N2CCC[C@H]2C(=O)N[C@H](CCCN=C(N)N)C(=O)NCC(N)=O)NC(=O)[C@H](CC(N)=O)NC1=O", "note": "[desmopressin]", "values": [{"measurement": "Change from baseline to final visit (Day 28) in duration of initial period of undisturbed sleep, mean", "setting": "[1]; 10 ug, all females", "result": 54, "unit": "min"}, {"measurement": "Change from baseline to final visit (Day 28) in duration of initial period of undisturbed sleep, median", "setting": "[1]; 10 ug, all females", "result": 46, "unit": "min"}, {"measurement": "Change from baseline to final visit (Day 28) in duration of initial period of undisturbed sleep, mean", "setting": "[1]; 10 ug, all groups", "result": 51, "unit": "min"}, {"measurement": "Change from baseline to final visit (Day 28) in duration of initial period of undisturbed sleep, median", "setting": "[1]; 10 ug, all groups", "result": 51, "unit": "min"}, {"measurement": "Change from baseline to final visit (Day 28) in duration of initial period of undisturbed sleep, mean", "setting": "[1]; [3]", "result": 54, "unit": "min"}, {"measurement": "Change from baseline to final visit (Day 28) in duration of initial period of undisturbed sleep, median", "setting": "[1]; [3]", "result": 59, "unit": "min"}, {"measurement": "Change from baseline to final visit (Day 28) in duration of initial period of undisturbed sleep, mean", "setting": "[1]; 10 ug, all males", "result": 48, "unit": "min"}, {"measurement": "Change from baseline to final visit (Day 28) in duration of initial period of undisturbed sleep, median", "setting": "[1]; 10 ug, all males", "result": 56, "unit": "min"}, {"measurement": "Change from baseline to final visit (Day 28) in duration of initial period of undisturbed sleep, mean", "setting": "[1]; [4]", "result": 33, "unit": "min"}, {"measurement": "Change from baseline to final visit (Day 28) in duration of initial period of undisturbed sleep, median", "setting": "[1]; [4]", "result": 27, "unit": "min"}, {"measurement": "Change from baseline to final visit (Day 28) in duration of initial period of undisturbed sleep, mean", "setting": "[1]; [5]", "result": 18, "unit": "min"}, {"measurement": "Change from baseline to final visit (Day 28) in duration of initial period of undisturbed sleep, median", "setting": "[1]; [5]", "result": 46, "unit": "min"}, {"measurement": "Change from baseline to final visit (Day 28) in duration of initial period of undisturbed sleep, mean", "setting": "[1]; 25 ug, all females", "result": 113, "unit": "min"}, {"measurement": "Change from baseline to final visit (Day 28) in duration of initial period of undisturbed sleep, median", "setting": "[1]; 25 ug, all females", "result": 95, "unit": "min"}, {"measurement": "Change from baseline to final visit (Day 28) in duration of initial period of undisturbed sleep, mean", "setting": "[1]; 25 ug, all groups", "result": 83, "unit": "min"}, {"measurement": "Change from baseline to final visit (Day 28) in duration of initial period of undisturbed sleep, median", "setting": "[1]; 25 ug, all groups", "result": 62, "unit": "min"}, {"measurement": "Change from baseline to final visit (Day 28) in duration of initial period of undisturbed sleep, mean", "setting": "[1]; [6]", "result": 57, "unit": "min"}, {"measurement": "Change from baseline to final visit (Day 28) in duration of initial period of undisturbed sleep, median", "setting": "[1]; [6]", "result": 54, "unit": "min"}, {"measurement": "Change from baseline to final visit (Day 28) in duration of initial period of undisturbed sleep, mean", "setting": "[1]; 25 ug, all males", "result": 61, "unit": "min"}, {"measurement": "Change from baseline to final visit (Day 28) in duration of initial period of undisturbed sleep, median", "setting": "[1]; 25 ug, all males", "result": 55, "unit": "min"}, {"measurement": "median increase in initial period of sleep", "setting": "[1]; 25 μg", "result": "approximately 1 hour"}, {"measurement": "Change from baseline to final visit (Day 28) in duration of initial period of undisturbed sleep, mean", "setting": "[1]; [7]", "result": 122, "unit": "min"}, {"measurement": "Change from baseline to final visit (Day 28) in duration of initial period of undisturbed sleep, median", "setting": "[1]; [7]", "result": 96, "unit": "min"}, {"measurement": "Change from baseline to final visit (Day 28) in duration of initial period of undisturbed sleep, mean", "setting": "[1]; [8]", "result": 131, "unit": "min"}, {"measurement": "Change from baseline to final visit (Day 28) in duration of initial period of undisturbed sleep, median", "setting": "[1]; [8]", "result": 113, "unit": "min"}, {"measurement": "Change from baseline to final visit (Day 28) in duration of initial period of undisturbed sleep, mean", "setting": "[1]; 50 ug, all females", "result": 98, "unit": "min"}, {"measurement": "Change from baseline to final visit (Day 28) in duration of initial period of undisturbed sleep, median", "setting": "[1]; 50 ug, all females", "result": 70, "unit": "min"}, {"measurement": "Change from baseline to final visit (Day 28) in duration of initial period of undisturbed sleep, mean", "setting": "[1]; 50 ug, all groups", "result": 85, "unit": "min"}, {"measurement": "Change from baseline to final visit (Day 28) in duration of initial period of undisturbed sleep, median", "setting": "[1]; 50 ug, all groups", "result": 63, "unit": "min"}, {"measurement": "Change from baseline to final visit (Day 28) in duration of initial period of undisturbed sleep, mean", "setting": "[1]; [9]", "result": 64, "unit": "min"}, {"measurement": "Change from baseline to final visit (Day 28) in duration of initial period of undisturbed sleep, median", "setting": "[1]; [9]", "result": 59, "unit": "min"}, {"measurement": "Change from baseline to final visit (Day 28) in duration of initial period of undisturbed sleep, mean", "setting": "[1]; 50 ug, all males", "result": 72, "unit": "min"}, {"measurement": "Change from baseline to final visit (Day 28) in duration of initial period of undisturbed sleep, median", "setting": "[1]; 50 ug, all males", "result": 55, "unit": "min"}, {"measurement": "median increase in initial period of sleep", "setting": "[1]; 50 μg", "result": "approximately 1 hour"}, {"measurement": "Change from baseline to final visit (Day 28) in duration of initial period of undisturbed sleep, mean", "setting": "[1]; [10]", "result": 83, "unit": "min"}, {"measurement": "Change from baseline to final visit (Day 28) in duration of initial period of undisturbed sleep, median", "setting": "[1]; [10]", "result": 63, "unit": "min"}, {"measurement": "Change from baseline to final visit (Day 28) in duration of initial period of undisturbed sleep, mean", "setting": "[1]; [11]", "result": 42, "unit": "min"}, {"measurement": "Change from baseline to final visit (Day 28) in duration of initial period of undisturbed sleep, median", "setting": "[1]; [11]", "result": 30, "unit": "min"}, {"measurement": "Change from baseline to final visit (Day 28) in duration of initial period of undisturbed sleep, mean", "setting": "[1]; 100 ug, all females", "result": 114, "unit": "min"}, {"measurement": "Change from baseline to final visit (Day 28) in duration of initial period of undisturbed sleep, median", "setting": "[1]; 100 ug, all females", "result": 93, "unit": "min"}, {"measurement": "Change from baseline to final visit (Day 28) in duration of initial period of undisturbed sleep, mean", "setting": "[1]; 100 ug, all groups", "result": 107, "unit": "min"}, {"measurement": "Change from baseline to final visit (Day 28) in duration of initial period of undisturbed sleep, median", "setting": "[1]; 100 ug, all groups", "result": 96, "unit": "min"}, {"measurement": "Change from baseline to final visit (Day 28) in duration of initial period of undisturbed sleep, mean", "setting": "[1]; [12]", "result": 108, "unit": "min"}, {"measurement": "Change from baseline to final visit (Day 28) in duration of initial period of undisturbed sleep, median", "setting": "[1]; [12]", "result": 116, "unit": "min"}, {"measurement": "Change from baseline to final visit (Day 28) in duration of initial period of undisturbed sleep, mean", "setting": "[1]; 100 ug, all males", "result": 100, "unit": "min"}, {"measurement": "Change from baseline to final visit (Day 28) in duration of initial period of undisturbed sleep, median", "setting": "[1]; 100 ug, all males", "result": 101, "unit": "min"}, {"measurement": "Change from baseline to final visit (Day 28) in duration of initial period of undisturbed sleep, mean", "setting": "[1]; [13]", "result": 108, "unit": "min"}, {"measurement": "Change from baseline to final visit (Day 28) in duration of initial period of undisturbed sleep, median", "setting": "[1]; [13]", "result": 89, "unit": "min"}, {"measurement": "Change from baseline to final visit (Day 28) in duration of initial period of undisturbed sleep, mean", "setting": "[1]; [14]", "result": 81, "unit": "min"}, {"measurement": "Change from baseline to final visit (Day 28) in duration of initial period of undisturbed sleep, median", "setting": "[1]; [14]", "result": 70, "unit": "min"}, {"measurement": "median decrease of nocturnal urine volume compared to baseline before treatment", "setting": "[2]; 10 μg, Day 28", "result": 179, "unit": "mL"}, {"measurement": "Change from baseline to final visit (Day 28) of nocturnal urine volume, mean", "setting": "[2]; 10 ug, ITT, Part I", "result": -207, "unit": "mL"}]}
